Results on 18 molecules are retold here after US9133115B2 (ACHILLION PHARMACEUTICALS, INC., priority 2008, dated 2015).

Bounds are passed on as bounds.

For this assay, the system named is HCV replicon. Kind of assay: HCV replicon replication assay (NPT ELISA) in Huh-7 replicon-containing cells. The class given is cell-based. To be noted: Hepatitis C virus, 72 h; HCV replicon in Huh-7 cells, three days incubation; read-out: EC50. In outline: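 Replication was scored by capture ELISA of neomycin phosphotransferase, whose level tracks replicon replication, after graded compound treatment. The cells were Huh-7 harbouring an HCV-IRES/neo/EMCV-IRES/NS3–NS5B/3′-NTR replicon, plated at 6000-7500 cells/well and dosed 24 h later at 60-70% confluence; interferon alpha was the positive control.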
For orientation: Replicon systems follow genome replication, usually without infectious particles.
One may read the EC50 as the concentration that produces a half-maximal response. For `C=C[C@@H]1C[C@]1(NC(=O)[C@@H]1C[C@@H](Oc2cc(-c3ccccn3)nc3cc(OC)ccc23)CN1C(=O)[C@@H](CC(=O)N1CCCC(F)(F)C1)C(C)(C)C)C(=O)NS(=O)(=O)C1CC1` [Compound 217, (2S,4R)-1-((S)-2-tert-butyl-4-(3,3-difluoropiperidin-1-yl)-4-oxobutanoyl)-N-((1R)-1-(cyclopropyl-sulfonylcarbamoyl)-2-vinylcyclopropyl)-4-(7-methoxy-2-(pyridin-2-yl)quinolin-4-yloxy)pyrrolidine-2-carboxamide], the EC50 is < 1000 nM.

Turning to `C=C[C@@H]1C[C@]1(NC(=O)[C@@H]1C[C@@H](Oc2cc(-c3ccccc3)nc3cc(OC)ccc23)CN1C(=O)[C@@H](CC(=O)N1CCC1c1ccccc1)C(C)(C)C)C(=O)NS(=O)(=O)C1CC1` (stereo partly drawn) [Compound 227, (2S,4R)-1-((2S)-2-tert-butyl-4-oxo-4-(2-phenylazetidin-1-yl)butanoyl)-N-((1R)-1-(cyclopropyl-sulfonylcarbamoyl)-2-vinylcyclopropyl)-4-(7-methoxy-2-phenylquinolin-4-yloxy)pyrrolidine-2-carboxamide], the EC50 is < 1000 nM.

Take `C=C[C@@H]1C[C@]1(NC(=O)[C@@H]1C[C@@H](O)CN1C(=O)[C@@H](CC(=O)N1CCCCC1)C(C)(C)C)C(=O)NS(=O)(=O)C1CC1` [Compound 84, (2S,4R)-1-((S)-2-tert-butyl-4-oxo-4-(piperidin-1-yl)butanoyl)-N-((1R,2S)-1-(cyclo-propylsulfonyl-carbamoyl)-2-vinylcyclopropyl)-4-hydroxypyrrolidine-2-carboxamide]: the EC50 was in the range of 1000 to 10000 nM.

Consider `C=C[C@@H]1C[C@]1(NC(=O)[C@@H]1C[C@@H](OC(=O)N2c3ccccc3Oc3ccccc32)CN1C(=O)[C@@H](CC(=O)N1CCCCC1)C(C)(C)C)C(=O)NS(=O)(=O)C1CC1` [Compound 154, (3R,5S)-1-((S)-2-tert-butyl-4-oxo-4-(piperidin-1-yl)butanoyl)-5-((1R,2S)-1-(cyclo-propylsulfonyl-carbamoyl)-2-vinyl-cyclopropyl-carbamoyl)pyrrolidin-3-yl 10H-phenoxazine-10-carboxylate], for which the EC50 is 1000 to 10000 nM.

`C=C[C@@H]1C[C@]1(NC(=O)[C@@H]1C[C@@H](Oc2cc(-c3ccccc3)nc3cc(OC)ccc23)CN1C(=O)[C@@H](CC(=O)N1CC2CC1CO2)C(C)(C)C)C(=O)NS(=O)(=O)C1CC1` (stereo partly drawn) [Compound 174, (2S,4R)-1-((2S)-2-(2-(2-oxa-5-aza-bicyclo[2.2.1]heptan-5-yl)-2-oxoethyl)-3,3-dimethylbutanoyl)-N-((1R,2S)-1-(cyclopropyl-sulfonylcarbamoyl)-2-vinylcyclopropyl)-4-(7-methoxy-2-phenylquinolin-4-yloxy)pyrrolidine-2-carboxamide]: the EC50 is < 1000 nM.

`C=C[C@@H]1C[C@]1(NC(=O)[C@@H]1C[C@@H](Oc2cc(-c3ccccn3)nc3c(C)c(OC)ccc23)CN1C(=O)[C@@H](CC(=O)N1CCCC(F)(F)C1)C(C)(C)C)C(=O)NS(=O)(=O)C1CC1` [Compound 246, (2S,4R)-1-((S)-2-tert-butyl-4-(3,3-difluoropiperidin-1-yl)-4-oxobutanoyl)-N-((2S)-1-(cyclopropyl-sulfonylcarbamoyl)-2-vinylcyclopropyl)-4-(7-methoxy-8-methyl-2-(pyridin-2-yl)quinolin-4-yloxy)pyrrolidine-2-carboxamide]: the concentration for a half-maximal effect (EC50) is < 1000 nM.

Turning to `C=C[C@@H]1C[C@]1(NC(=O)[C@@H]1C[C@@H](Oc2cc(-c3ccccc3)nc3cc(OC)ccc23)CN1C(=O)[C@H](CC(=O)N1CCCCC1)C(C)(C)C)C(=O)NS(=O)(=O)C1CC1` [Compound 134, (2S,4R)-1-((R)-2-tert-butyl-4-oxo-4-(piperidin-1-yl)butanoyl)-N-((1R,2S)-1-(cyclo-propylsulfonyl-carbamoyl)-2-vinylcyclopropyl)-4-(7-methoxy-2-phenylquinolin-4-yloxy)pyrrolidine-2-carboxamide], the EC50 was in the range of 1000 to 10000 nM.

As to `C=C[C@@H]1C[C@]1(NC(=O)[C@@H]1C[C@@H](NC(=O)n2c3ccccc3c3ccccc32)CN1C(=O)[C@@H](CC(=O)N1CC2CCC1C2)C(C)(C)C)C(=O)NS(=O)(=O)C1CC1` (stereo partly drawn) [Compound 198, N-((3R,5S)-1-((2S)-2-(2-(2-aza-bicyclo[2.2.1]heptan-2-yl)-2-oxoethyl)-3,3-dimethylbutanoyl)-5-((1R)-1-(cyclo-propylsulfonyl-carbamoyl)-2-vinylcyclopropyl-carbamoyl)pyrrolidin-3-yl)-9H-carbazole-9-carboxamide], the EC50 is < 1000 nM.

Take `C=C[C@@H]1C[C@]1(NC(=O)[C@@H]1C[C@@H](Oc2cc(-c3ccccn3)nc3cc(OC)ccc23)CN1C(=O)[C@@H](CC(=O)N1CCC(F)(F)C1)C(C)(C)C)C(=O)NS(=O)(=O)C1CC1` [Compound 214, (2S,4R)-1-((S)-2-tert-butyl-4-(3,3-difluoropyrrolidin-1-yl)-4-oxobutanoyl)-N-((1R)-1-(cyclopropyl-sulfonylcarbamoyl)-2-vinylcyclopropyl)-4-(7-methoxy-2-(pyridin-2-yl)quinolin-4-yloxy)pyrrolidine-2-carboxamide]: the 50% effective concentration (EC50) is < 1000 nM.

Take `C=C[C@@H]1C[C@]1(NC(=O)[C@@H]1C[C@@H](Oc2cc(-c3ccccc3)nc3cc(OC)ccc23)CN1C(=O)[C@@H](CC(=O)N1CCC(c2ccccc2)CC1)C(C)(C)C)C(=O)NS(=O)(=O)C1CC1` [Compound 182, (2S,4R)-1-((S)-2-tert-butyl-4-oxo-4-(4-phenylpiperidin-1-yl)butanoyl)-N-((1R,2S)-1-(cyclopropylsulfonyl-carbamoyl)-2-vinylcyclopropyl)-4-(7-methoxy-2-phenylquinolin-4-yloxy)pyrrolidine-2-carboxamide]: the EC50 was < 1000 nM.

Regarding `C=C[C@@H]1C[C@]1(NC(=O)[C@@H]1C[C@@H](Oc2cc(-c3nc(C(C)C)cs3)nc3c(C)c(OC)ccc23)CN1C(=O)[C@@H](CC(=O)N1CCCC(F)(F)C1)C(C)(C)C)C(=O)NS(=O)(=O)C1CC1` [Compound 248, (2S,4R)-1-((S)-2-tert-butyl-4-(3,3-difluoropiperidin-1-yl)-4-oxobutanoyl)-N-((2S)-1-(cyclopropyl-sulfonylcarbamoyl)-2-vinylcyclopropyl)-4-(2-(4-isopropylthiazol-2-yl)-7-methoxy-8-methylquinolin-4-yloxy)pyrrolidine-2-carboxamide], the EC50 was < 1000 nM.

Regarding `C=C[C@@H]1C[C@]1(NC(=O)[C@@H]1C[C@@H](NC(=O)n2c3ccccc3c3ccccc32)CN1C(=O)[C@@H](CC(=O)N1CCC(F)(F)CC1)C(C)(C)C)C(=O)NS(=O)(=O)C1CC1` [Compound 187, N-((3R,5S)-1-((S)-2-tert-butyl-4-(4,4-difluoropiperidin-1-yl)-4-oxobutanoyl)-5-((1R,2S)-1-(cyclopropylsulfonyl-carbamoyl)-2-vinyl-cyclopropyl-carbamoyl)pyrrolidin-3-yl)-9H-carbazole-9-carboxamide], the EC50 is < 1000 nM.

In the case of `C=C[C@@H]1C[C@]1(NC(=O)[C@@H]1C[C@@H](OC(=O)Nc2ccccc2C(=O)OCC)CN1C(=O)[C@@H](CC(=O)N1CCCCC1)C(C)(C)C)C(=O)NS(=O)(=O)C1CC1` [Compound 94], the EC50 was < 1000 nM.

In the case of `C=C[C@@H]1C[C@]1(NC(=O)[C@@H]1C[C@@H](Oc2nc(-c3ccccn3)cc3c(Cl)c(OC)ccc23)CN1C(=O)[C@@H](CC(=O)N1CCCCC1)C(C)(C)C)C(=O)NS(=O)(=O)C1CC1` [Compound 243, (2S,4R)-1-((S)-2-tert-butyl-4-oxo-4-(piperidin-1-yl)butanoyl)-4-(5-chloro-6-methoxy-3-(pyridin-2-yl)isoquinolin-1-yloxy)-N-((2S)-1-(cyclopropyl-sulfonylcarbamoyl)-2-vinylcyclo-propyl)pyrrolidine-2-carboxamide], the EC50 is < 1000 nM.

On to `C=C[C@@H]1C[C@]1(NC(=O)[C@@H]1C[C@@H](Oc2nccc3cc(OC)ccc23)CN1C(=O)[C@@H](CC(=O)N1CCCCC1)C(C)(C)C)C(=O)NS(=O)(=O)C1CC1` [Compound 101, (2S,4R)-1-((S)-2-tert-butyl-4-oxo-4-(piperidin-1-yl)butanoyl)-N-((1R,2S)-1-(cyclo-propylsulfonyl-carbamoyl)-2-vinylcyclopropyl)-4-(6-methoxyisoquinolin-1-yloxy)pyrrolidine-2-carboxamide], for which the EC50 was < 1000 nM.

In the case of `C=C[C@@H]1C[C@]1(NC(=O)[C@@H]1C[C@@H](Oc2cc(-c3ccccc3)nc3cc(OC)ccc23)CN1C(=O)[C@@H](CC(=O)N1CCCCC1)C(C)(C)C)C(=O)N(C1CC1)S(N)(=O)=O` [Compound 107, (2S,4R)-1-((S)-2-tert-butyl-4-oxo-4-(piperidin-1-yl)butanoyl)-N-((1R,2S)-1-(N-cyclopropyl-sulfamoyl-carbamoyl)-2-vinylcyclopropyl)-4-(7-methoxy-2-phenylquinolin-4-yloxy)pyrrolidine-2-carboxamide], the EC50 was < 1000 nM.

Regarding `C=C[C@@H]1C[C@]1(NC(=O)[C@@H]1C[C@@H](Oc2cc(-c3ccccc3)nc3cc(OC)ccc23)CN1C(=O)[C@@H](CC(=O)N1CCC[C@H]1C(=O)N(C)C)C(C)(C)C)C(=O)NS(=O)(=O)C1CC1` [Compound 88, (2S,4R)-1-((S)-2-tert-butyl-4-((S)-2-(dimethylcarbamo-yl)pyrrolidin-1-yl)-4-oxobutanoyl)-N-((1R,2S)-1-(cyclopropylsulfonyl-carbamoyl)-2-vinylcyclopropyl)-4-(7-methoxy-2-phenylquinolin-4-yloxy)pyrrolidine-2-carboxamide], the concentration for a half-maximal effect (EC50) is < 1000 nM.

Consider `C=CC1CC1(NC(=O)[C@@H]1C[C@@H](Oc2cc(-c3ccccc3)nc3cc(OC)ccc23)CN1C(=O)[C@@H](CC(=O)N1CCCCC1C(N)=O)C(C)(C)C)C(=O)NS(=O)(=O)C1CC1` (stereo partly drawn) [Compound 42, 1-((3S)-3-((2S,4R)-2-(1-(cyclopropyl-sulfonyl-carbamoyl)-2-vinylcyclopropyl-carbamoyl)-4-(7-methoxy-2-phenylquinolin-4-yloxy)pyrrolidine-1-carbonyl)-4,4-dimethylpentano-yl)piperidine-2-carboxamide], for which the EC50 is < 1000 nM.
